In paper PMC9927415, “Tyrosine Kinase Inhibitors Display Potent Activity against Cryptosporidium parvum” (Microbiology Spectrum, 2022) one finds inhibition data, which are given here for ten compounds.

Common to all, as to assay: KINOMEscan competitive binding, whole panel
Assay [1] addresses T1, panel of 203 kinases (Homo sapiens, UniProt P21802).
T1 construct: purchased DiscoverX (KINOMEscan)
Conditions: 10 µM, n=1; kinase FGFR2; read-out: Percent inhibition FGFR2. In outline:
(§1)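 Kinases expressed as T7 bacteriophage fusions; test compound competes with an immobilized ATP-site probe ligand. Kinase still bound to the solid support was quantified and expressed as percentage inhibition.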

Assay [2] concerns the target T2, panel of 203 kinases (Homo sapiens, UniProt Q15303).
T2 construct: purchased DiscoverX (KINOMEscan)
As to conditions: 10 µM, n=1; kinase ERBB4; read-out: Percent inhibition ERBB4. In outline: as §1

Assay [3] deals with T3, panel of 203 kinases (Homo sapiens, UniProt Q16584).
T3 construct: purchased DiscoverX (KINOMEscan)
Conditions: 10 µM, n=1; kinase MLK3; read-out: Percent inhibition MLK3. The gist of the method:
as §1

Assay [4] deals with T4, panel of 203 kinases (Homo sapiens, UniProt Q8TD19).
T4 construct: purchased DiscoverX (KINOMEscan)
T4 sequence (Q8TD19 1-979): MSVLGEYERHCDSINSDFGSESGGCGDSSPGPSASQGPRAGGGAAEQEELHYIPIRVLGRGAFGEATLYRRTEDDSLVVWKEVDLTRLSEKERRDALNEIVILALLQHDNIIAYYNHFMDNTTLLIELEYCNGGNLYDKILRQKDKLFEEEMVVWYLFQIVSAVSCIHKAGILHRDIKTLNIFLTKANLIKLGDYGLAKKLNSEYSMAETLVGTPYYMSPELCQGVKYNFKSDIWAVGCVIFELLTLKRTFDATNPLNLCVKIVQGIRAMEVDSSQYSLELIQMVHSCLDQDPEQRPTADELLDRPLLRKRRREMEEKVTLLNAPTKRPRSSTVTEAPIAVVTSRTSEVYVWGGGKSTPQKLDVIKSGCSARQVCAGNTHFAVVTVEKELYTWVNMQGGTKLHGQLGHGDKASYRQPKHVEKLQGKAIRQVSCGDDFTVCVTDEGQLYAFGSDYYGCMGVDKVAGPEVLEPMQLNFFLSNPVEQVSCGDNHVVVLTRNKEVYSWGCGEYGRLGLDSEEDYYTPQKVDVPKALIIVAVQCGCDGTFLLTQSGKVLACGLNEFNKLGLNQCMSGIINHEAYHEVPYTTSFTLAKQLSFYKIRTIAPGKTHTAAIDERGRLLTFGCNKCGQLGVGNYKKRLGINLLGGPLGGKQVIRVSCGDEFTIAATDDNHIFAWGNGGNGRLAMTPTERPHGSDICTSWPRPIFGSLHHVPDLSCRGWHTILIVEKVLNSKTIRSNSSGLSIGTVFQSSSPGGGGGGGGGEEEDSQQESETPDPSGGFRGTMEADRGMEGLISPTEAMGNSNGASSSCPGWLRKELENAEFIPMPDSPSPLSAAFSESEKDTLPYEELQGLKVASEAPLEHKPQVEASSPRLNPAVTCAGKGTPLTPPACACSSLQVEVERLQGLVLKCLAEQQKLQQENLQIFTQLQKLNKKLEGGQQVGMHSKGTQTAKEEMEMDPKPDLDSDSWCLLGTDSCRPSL
Conditions: 10 µM, n=1; kinase NEK9; read-out: Percent inhibition NEK9. In outline:
as §1

The target in assay [5] is T5, panel of 203 kinases (Homo sapiens, UniProt Q99683).
T5 construct: purchased DiscoverX (KINOMEscan)
T5 sequence (Q99683 1-1374): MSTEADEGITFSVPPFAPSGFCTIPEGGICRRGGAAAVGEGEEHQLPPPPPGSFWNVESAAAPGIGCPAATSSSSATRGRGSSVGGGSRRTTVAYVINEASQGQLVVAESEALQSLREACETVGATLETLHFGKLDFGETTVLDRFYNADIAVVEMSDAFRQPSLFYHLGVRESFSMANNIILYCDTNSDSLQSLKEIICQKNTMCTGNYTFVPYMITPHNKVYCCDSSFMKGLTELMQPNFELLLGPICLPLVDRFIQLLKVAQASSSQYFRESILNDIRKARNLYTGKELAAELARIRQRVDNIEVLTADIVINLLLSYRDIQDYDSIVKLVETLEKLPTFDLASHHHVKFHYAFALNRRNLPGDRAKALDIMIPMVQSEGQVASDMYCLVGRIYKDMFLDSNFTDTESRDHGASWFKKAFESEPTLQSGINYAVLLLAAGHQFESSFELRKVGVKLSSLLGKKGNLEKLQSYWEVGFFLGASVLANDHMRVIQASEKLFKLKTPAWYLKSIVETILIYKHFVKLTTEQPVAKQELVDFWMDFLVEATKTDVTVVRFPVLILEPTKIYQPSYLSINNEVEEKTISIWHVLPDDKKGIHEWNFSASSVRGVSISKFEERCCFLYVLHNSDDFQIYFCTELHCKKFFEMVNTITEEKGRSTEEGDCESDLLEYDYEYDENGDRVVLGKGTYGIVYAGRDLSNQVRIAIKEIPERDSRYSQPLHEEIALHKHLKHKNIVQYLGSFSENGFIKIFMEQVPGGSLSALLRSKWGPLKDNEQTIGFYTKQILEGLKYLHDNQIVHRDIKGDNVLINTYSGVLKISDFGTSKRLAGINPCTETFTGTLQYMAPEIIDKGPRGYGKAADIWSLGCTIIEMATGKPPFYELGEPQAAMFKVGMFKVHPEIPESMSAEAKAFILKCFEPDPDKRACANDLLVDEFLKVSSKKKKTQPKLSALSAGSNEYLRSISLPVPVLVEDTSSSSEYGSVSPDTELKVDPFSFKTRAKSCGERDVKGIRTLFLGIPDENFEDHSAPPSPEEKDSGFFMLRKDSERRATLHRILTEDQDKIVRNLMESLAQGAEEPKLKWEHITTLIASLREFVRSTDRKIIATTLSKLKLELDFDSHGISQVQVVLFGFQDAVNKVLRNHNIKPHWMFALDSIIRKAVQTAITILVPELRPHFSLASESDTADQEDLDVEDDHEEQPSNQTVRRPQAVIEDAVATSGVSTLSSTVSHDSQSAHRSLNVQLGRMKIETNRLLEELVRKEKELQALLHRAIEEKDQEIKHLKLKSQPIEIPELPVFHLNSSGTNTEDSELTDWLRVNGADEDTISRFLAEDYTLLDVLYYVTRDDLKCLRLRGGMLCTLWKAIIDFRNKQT
Conditions: 10 µM, n=1; kinase MAP3K5; read-out: Percent inhibition MAP3K5. The gist of the method:
as §1

T3 sequence (Q16584 whole entry): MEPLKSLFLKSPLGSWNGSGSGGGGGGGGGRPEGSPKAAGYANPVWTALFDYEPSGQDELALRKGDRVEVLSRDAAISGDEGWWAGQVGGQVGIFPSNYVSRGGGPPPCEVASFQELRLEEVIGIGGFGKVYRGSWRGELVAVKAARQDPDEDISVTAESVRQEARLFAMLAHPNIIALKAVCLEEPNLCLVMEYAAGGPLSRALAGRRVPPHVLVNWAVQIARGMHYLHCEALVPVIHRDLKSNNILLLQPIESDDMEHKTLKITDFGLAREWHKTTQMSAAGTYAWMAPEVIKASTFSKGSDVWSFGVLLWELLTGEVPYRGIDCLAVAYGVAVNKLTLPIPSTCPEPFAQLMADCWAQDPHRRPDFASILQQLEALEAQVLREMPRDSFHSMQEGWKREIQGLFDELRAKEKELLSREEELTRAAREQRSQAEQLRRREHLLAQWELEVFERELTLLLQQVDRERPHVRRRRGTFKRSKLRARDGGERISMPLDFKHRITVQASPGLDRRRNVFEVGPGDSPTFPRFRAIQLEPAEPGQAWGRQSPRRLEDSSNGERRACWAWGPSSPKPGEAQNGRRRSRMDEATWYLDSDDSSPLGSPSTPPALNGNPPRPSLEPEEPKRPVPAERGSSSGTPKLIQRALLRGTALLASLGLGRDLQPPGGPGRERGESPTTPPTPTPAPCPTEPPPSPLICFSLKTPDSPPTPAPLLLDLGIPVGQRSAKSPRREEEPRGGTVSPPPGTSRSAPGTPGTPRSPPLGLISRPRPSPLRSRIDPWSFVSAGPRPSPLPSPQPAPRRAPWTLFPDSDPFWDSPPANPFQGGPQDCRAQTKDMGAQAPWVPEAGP
T2 sequence (Q15303 26-1308): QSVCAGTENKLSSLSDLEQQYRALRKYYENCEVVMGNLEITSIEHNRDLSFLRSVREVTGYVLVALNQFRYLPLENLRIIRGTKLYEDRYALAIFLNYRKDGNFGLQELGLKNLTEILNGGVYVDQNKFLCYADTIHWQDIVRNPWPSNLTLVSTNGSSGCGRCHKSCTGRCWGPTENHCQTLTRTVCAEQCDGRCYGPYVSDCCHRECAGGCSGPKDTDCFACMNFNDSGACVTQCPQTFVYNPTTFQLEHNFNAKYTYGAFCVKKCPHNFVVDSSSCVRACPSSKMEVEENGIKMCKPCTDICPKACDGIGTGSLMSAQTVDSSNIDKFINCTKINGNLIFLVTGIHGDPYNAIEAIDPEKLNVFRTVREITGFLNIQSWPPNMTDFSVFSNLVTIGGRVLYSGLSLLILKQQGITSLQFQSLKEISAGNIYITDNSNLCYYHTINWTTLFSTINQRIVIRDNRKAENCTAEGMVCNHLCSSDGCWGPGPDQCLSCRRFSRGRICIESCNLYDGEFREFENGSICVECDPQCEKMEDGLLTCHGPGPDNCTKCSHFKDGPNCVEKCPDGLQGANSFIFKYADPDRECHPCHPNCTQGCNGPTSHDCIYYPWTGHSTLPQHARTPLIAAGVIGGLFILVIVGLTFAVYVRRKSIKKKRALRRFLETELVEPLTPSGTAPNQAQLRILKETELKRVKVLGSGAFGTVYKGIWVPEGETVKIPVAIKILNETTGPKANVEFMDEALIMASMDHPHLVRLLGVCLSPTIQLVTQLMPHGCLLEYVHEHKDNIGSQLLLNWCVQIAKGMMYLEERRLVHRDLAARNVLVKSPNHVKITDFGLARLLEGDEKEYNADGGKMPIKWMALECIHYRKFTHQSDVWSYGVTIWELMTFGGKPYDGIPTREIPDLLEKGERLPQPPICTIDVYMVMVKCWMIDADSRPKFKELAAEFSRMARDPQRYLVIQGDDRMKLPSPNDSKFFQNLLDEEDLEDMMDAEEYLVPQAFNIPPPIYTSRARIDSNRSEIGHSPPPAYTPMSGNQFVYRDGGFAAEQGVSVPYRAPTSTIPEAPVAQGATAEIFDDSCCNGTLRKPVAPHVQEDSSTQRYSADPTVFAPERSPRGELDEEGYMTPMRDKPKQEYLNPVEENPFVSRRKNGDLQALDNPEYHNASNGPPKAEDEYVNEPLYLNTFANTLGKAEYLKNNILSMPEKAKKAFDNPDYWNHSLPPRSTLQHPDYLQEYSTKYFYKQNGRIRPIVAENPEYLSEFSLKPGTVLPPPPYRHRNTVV
T1 sequence (P21802 22-821): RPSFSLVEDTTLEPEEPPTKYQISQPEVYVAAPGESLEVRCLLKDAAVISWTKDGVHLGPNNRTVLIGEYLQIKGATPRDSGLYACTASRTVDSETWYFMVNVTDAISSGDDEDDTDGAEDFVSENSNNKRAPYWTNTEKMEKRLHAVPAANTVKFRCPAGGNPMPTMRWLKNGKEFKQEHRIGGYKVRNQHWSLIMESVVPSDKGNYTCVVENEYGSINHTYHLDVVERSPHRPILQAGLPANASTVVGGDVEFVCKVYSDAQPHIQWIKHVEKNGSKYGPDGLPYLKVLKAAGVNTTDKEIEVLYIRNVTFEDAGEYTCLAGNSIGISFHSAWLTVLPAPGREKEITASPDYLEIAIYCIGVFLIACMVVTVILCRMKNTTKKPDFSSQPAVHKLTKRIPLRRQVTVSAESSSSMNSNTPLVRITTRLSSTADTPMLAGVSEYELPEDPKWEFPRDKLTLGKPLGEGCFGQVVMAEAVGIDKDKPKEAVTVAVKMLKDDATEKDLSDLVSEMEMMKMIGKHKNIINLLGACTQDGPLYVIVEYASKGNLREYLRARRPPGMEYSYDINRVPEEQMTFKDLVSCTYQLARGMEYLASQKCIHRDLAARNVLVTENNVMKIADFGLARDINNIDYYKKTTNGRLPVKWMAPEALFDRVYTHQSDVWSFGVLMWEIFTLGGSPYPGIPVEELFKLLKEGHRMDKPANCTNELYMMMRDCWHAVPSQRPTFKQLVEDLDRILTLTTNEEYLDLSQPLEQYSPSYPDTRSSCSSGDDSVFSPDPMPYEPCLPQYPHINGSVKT

Take `CN1CCN(c2ccc(Nc3nccc(-c4cnn5ncccc45)n3)cc2C#N)CC1` [Compound 1]: the inhibition at 10 µM was 70.1% at panel of 203 kinases [1]; 0% on panel of 203 kinases [2]; 0% on panel of 203 kinases [3]; 99.2% on panel of 203 kinases [4]; 0% at panel of 203 kinases [5].

Turning to `COc1ccc(Nc2nccc(-c3cnn4ncccc34)n2)cc1` [Compound 2], the inhibition at 10 µM at panel of 203 kinases [1] worked out at 0%; at panel of 203 kinases [2], 0%; on panel of 203 kinases [3], 75.5%; on panel of 203 kinases [4], 100%; at panel of 203 kinases [5], 0%.

As to `Cc1ccc(O)cc1Nc1ccnc(Nc2cccc(C(N)=O)c2)n1` [Compound 3], the inhibition at 10 µM at panel of 203 kinases [1] is 0%; on panel of 203 kinases [2] it was 90.9%; at panel of 203 kinases [3] it was 69.4%; on panel of 203 kinases [4], 0%; on panel of 203 kinases [5] it was 0%.

Regarding `Cc1ccc(O)cc1N(C)c1ccnc(Nc2cccc(S(N)(=O)=O)c2)n1` [Compound 4], the inhibition at 10 µM turned out to be 0% on panel of 203 kinases [1]; 87.3% at panel of 203 kinases [2]; 81% on panel of 203 kinases [3]; 0% on panel of 203 kinases [4]; 0% at panel of 203 kinases [5].

For `Fc1cccc(COc2ccc(Nc3ncnc4c3CN(CCN3CCOCC3)CC4)cc2Cl)c1` [Compound 6], the inhibition at 10 µM at panel of 203 kinases [1], on panel of 203 kinases [2], on panel of 203 kinases [3], on panel of 203 kinases [4] and on panel of 203 kinases [5] was 0% in each case.

Consider `COc1cc(Nc2nccc(-c3sc(N)nc3-c3cccc(NC(=O)c4c(F)cccc4F)c3)n2)cc(OC)c1OC` [Compound 7], for which the inhibition at 10 µM on panel of 203 kinases [1] came to 100%; at panel of 203 kinases [2], 100%; at panel of 203 kinases [3], 99.8%; at panel of 203 kinases [4] it was 88.9%; at panel of 203 kinases [5] it was 0%.

For the compound `C[C@@H](Oc1cc(-c2cnc3ccccn23)sc1C(N)=O)c1ccccc1Cl` [Compound 8], the inhibition at 10 µM worked out at 0% at panel of 203 kinases [1]; 0% on panel of 203 kinases [2]; 0% at panel of 203 kinases [3]; 94.7% on panel of 203 kinases [4]; 0% at panel of 203 kinases [5].

Take `c1ccc(COc2cccc(-c3ccnc4[nH]ccc34)c2)cc1` [Compound 9]: the inhibition at 10 µM on panel of 203 kinases [1], on panel of 203 kinases [2], at panel of 203 kinases [3], on panel of 203 kinases [4] and at panel of 203 kinases [5] was 0% in each case.

Take `Clc1ccc(Nc2ncc(-c3ccccc3)s2)cc1` [Compound 10]: the inhibition at 10 µM at panel of 203 kinases [1], on panel of 203 kinases [2], at panel of 203 kinases [3], at panel of 203 kinases [4] and on panel of 203 kinases [5] was 0% throughout.

With `Nc1ncc2c(-c3ccncc3)c[nH]c2n1` [Compound 11], the inhibition at 10 µM on panel of 203 kinases [1] is 0%; on panel of 203 kinases [2] it was 0%; at panel of 203 kinases [3] it was 82.8%; on panel of 203 kinases [4] it was 0%; on panel of 203 kinases [5] it was 0%.
